In data set [1] the target is T1, Amine oxidase [flavin-containing] B (Homo sapiens, UniProt P27338).
T1 sequence (P27338 whole entry): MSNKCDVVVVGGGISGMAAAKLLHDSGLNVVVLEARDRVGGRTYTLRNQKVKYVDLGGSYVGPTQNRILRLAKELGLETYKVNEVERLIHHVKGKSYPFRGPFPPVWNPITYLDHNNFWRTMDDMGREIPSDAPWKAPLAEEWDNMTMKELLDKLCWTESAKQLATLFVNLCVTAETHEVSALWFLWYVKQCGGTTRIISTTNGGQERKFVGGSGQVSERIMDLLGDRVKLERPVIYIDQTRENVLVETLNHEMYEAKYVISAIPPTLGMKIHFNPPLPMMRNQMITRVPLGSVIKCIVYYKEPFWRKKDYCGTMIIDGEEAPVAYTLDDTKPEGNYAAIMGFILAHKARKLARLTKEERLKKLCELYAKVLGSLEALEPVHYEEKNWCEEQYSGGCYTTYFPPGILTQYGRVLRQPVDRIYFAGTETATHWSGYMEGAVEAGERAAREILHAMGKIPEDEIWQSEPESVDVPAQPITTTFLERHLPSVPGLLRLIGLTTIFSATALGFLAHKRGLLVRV
Kind of data set: Inhibition of human recombinant MAO-B expressed in insect cell microsomes using kynuramine as substrate assessed as formation of 4-hydroxyquinoline by fluorometric method. Further details: species or system Microsome; call rule not given here.

The species named for another data set is Homo sapiens. Kind of data set: Selectivity index, ratio of IC50 for human recombinant MAO-A to IC50 for human recombinant MAO-B.
In data set [2] the target is T2, Amine oxidase [flavin-containing] A (Homo sapiens, UniProt P21397).
T2 sequence (P21397 whole entry): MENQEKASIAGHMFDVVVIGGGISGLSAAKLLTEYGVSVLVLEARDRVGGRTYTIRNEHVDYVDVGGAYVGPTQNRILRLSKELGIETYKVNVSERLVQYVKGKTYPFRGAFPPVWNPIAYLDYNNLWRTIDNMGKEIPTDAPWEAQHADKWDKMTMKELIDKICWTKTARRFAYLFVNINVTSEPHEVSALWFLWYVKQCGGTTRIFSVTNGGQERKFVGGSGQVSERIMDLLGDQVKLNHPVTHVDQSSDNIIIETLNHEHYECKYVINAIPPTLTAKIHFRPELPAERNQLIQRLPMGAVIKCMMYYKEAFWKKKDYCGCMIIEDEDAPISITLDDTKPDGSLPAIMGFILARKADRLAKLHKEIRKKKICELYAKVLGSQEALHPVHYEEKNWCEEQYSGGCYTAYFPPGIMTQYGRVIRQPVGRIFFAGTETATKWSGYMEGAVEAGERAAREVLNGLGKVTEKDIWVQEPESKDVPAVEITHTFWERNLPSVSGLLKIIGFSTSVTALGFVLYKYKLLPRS
Put plainly: Inhibition of human recombinant MAO-A expressed in insect cell microsomes using kynuramine as substrate assessed as formation of 4-hydroxyquinoline by fluorometric method. Also on record: species or system Microsome.

Data set [3] has as its target T3, Amine oxidase [flavin-containing] A (Rattus norvegicus, UniProt P21396).
T3 sequence (P21396 whole entry): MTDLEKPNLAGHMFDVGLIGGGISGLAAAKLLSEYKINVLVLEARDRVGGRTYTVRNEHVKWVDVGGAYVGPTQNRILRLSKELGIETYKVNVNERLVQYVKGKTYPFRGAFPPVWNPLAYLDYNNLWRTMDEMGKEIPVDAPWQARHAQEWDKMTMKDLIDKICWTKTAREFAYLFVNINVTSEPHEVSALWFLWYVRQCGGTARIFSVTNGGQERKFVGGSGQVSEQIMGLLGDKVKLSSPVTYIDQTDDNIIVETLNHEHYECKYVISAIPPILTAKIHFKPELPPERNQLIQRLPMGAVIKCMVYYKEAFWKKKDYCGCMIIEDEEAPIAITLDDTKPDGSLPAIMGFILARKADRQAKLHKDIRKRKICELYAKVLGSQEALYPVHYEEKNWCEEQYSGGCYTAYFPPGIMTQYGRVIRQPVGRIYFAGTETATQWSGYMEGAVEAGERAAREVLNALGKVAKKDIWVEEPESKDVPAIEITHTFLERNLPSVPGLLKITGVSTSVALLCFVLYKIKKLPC
Kind of data set: Displacement of [14C]-5HT from rat MAO-A after 20 mins by liquid scintillation counting analysis.

Data set [4] addresses T4, Amine oxidase [flavin-containing] B (Rattus norvegicus, UniProt P19643).
T4 sequence (P19643 whole entry): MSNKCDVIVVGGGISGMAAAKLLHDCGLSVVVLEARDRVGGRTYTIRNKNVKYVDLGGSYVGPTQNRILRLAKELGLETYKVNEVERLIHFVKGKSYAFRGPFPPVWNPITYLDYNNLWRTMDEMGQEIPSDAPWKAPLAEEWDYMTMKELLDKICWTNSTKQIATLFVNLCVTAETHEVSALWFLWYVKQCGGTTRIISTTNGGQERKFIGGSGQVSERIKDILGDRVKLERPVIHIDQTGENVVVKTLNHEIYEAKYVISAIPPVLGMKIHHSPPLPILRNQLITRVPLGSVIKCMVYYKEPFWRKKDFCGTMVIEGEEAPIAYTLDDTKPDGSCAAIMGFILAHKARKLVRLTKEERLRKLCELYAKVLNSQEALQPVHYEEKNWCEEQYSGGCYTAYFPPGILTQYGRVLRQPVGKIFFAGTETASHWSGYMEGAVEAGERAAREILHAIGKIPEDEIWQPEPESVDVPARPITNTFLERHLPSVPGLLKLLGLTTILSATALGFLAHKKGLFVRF
Put plainly: Displacement of [14C]-beta-PEA from rat MAO-B after 20 mins by liquid scintillation counting analysis.

The target in data set [5] is T2, Amine oxidase [flavin-containing] A. Put plainly: Inhibition of human recombinant MAO-A expressed in insect cell microsomes using kynuramine as substrate assessed as formation of 4-hydroxyquinoline at 100 uM by fluorometric method. Further details: species or system Microsome.

As to `Cc1ccc(C(=O)/C=C/c2ccc(F)cc2)o1`, the IC50 (commonly the concentration needed to halve the response being measured) in data set [1] was found to be 0.924 µM; in data set [2] it was 18.6 µM. Also, in the data set listed under Homo sapiens, the Ratio IC50 was 20.

Take `O=C(/C=C/c1ccc(O)cc1)c1ccc(O)cc1O` [ISOLIQUIRITIGENIN]: the figures for the IC50 in data set [3] and in data set [4] were 13.9 µM and 47.2 µM, respectively.

As for `Cc1ccc(C(=O)/C=C/c2ccc(Br)cc2)o1`, the figures for the half-maximal inhibitory concentration (IC50) in data set [1] and in data set [2] were 0.707 µM and 85.7 µM, respectively. Further, the Ratio IC50 in the data set listed under Homo sapiens amounted to 121.

As for `COc1cccc(/C=C/C(=O)c2ccc(C)o2)c1`, the “inhibition (INH)” value in data set [5] is “Not Active”.

Source of the values: ChEMBL document CHEMBL2417439, “Selected furanochalcones as inhibitors of monoamine oxidase” (Bioorg Med Chem Lett, 2013).
